Reference: patent US20260034091A1, “Compositions and Methods for Treating Metabolic Disorders” (The Regents of the University of California, priority 2022, published 2026)

Key:
[1] = tested on: CDAHFD diet-induced NAFLD/NASH with PPARA KO; experiment: TOFA in genetic PPARA knockout mice, CDAHFD model of NAFLD/NASH; format: in vivo, PPARA knockout (PPARA KO) male mice
Description: (§1) Six-week-old genetic PPARA knockout (PPARA KO) male mice were fed with a L-amino acid diet with 60 kcal % fat with 0.1% methionine and no added choline (CDAHFD; Research Diets A06071302i) for three weeks or fed with a 60 kcal % fat diet (DIO; Research Diets A12492i) for eight weeks before introduction of either vehicle (control) or 125 mg/kg of TOFA, BID, via oral gavage for an additional two weeks (FIG. 11A and FIG. 11J, respectively). C57BL/6J (WT) mice were fed with the CDAHFD and underwent similar experimental conditions and time course. Mice weights and adverse events were monitored during the treatment time course. Upon study termination, serum and liver samples were collected. Serum liver damage biomarkers, ALT and AST, were measured by commercially available kits (abcam105134 and abcam 105135, respectively). Hepatic and serum triglyceride levels were measured from a commercially available kit (abcam65336). Total RNA was extracted from liver tissues (Qiagen RNeasy kit 74106), and cDNA was prepared (BioRAD iScript™M Reverse Transcription) according to manufacturer's protocols. Quantitative PCR (qPCR) was performed with fast SYBR Green Mix (ThermoFisher A25742) on the QuantStudio6 System (Applied Biosciences). Protein expression levels of liver samples were measured by western blot using antibodies against ACC1/2 (CST3662, 1:1000), VLDLR (AF2258, 1:2000), CPT1A (CST12252, 1:1000), PPARA (abcam126285, 1:1000) and beta-tubulin (CST2146, 1:1000). Membranes were developed using a HRP secondary antibody (1:5000) and visualized using an enhanced chemiluminescent HRP substrate (Thermo34577). Additional liver samples were fixed in 4% paraformaldehyde and embedded in paraffin blocks for sectioning and subsequently stained with hematoxylin and eosin (H&E). Frozen fresh liver tissue was embedded in OCT, sectioned, and subsequently stained with Oil Red O.

[2] = tested on: CDAHFD-induced late stage NAFLD/NASH in mice; experiment: Benchmark study against Firsocostat and Fenofibrate in CDAHFD-induced late stage NAFLD/NASH; format: in vivo, C57BL/6J male mice; settings: QD oral gavage four weeks
Description: Six-week-old C57BL/6J male mice were fed with a L-amino acid diet with 60 kcal % fat with 0.1% methionine and no added choline (CDAHFD; Research Diets A06071302i) for eight weeks. Mice were randomly assigned to treatment groups of either a vehicle (control), 250 mg/kg of TOFA, 5 mg/kg of Firsocostat (Gilead Sciences), 50 mg/kg of Fenofibrate, or a combined dose of 5 mg/kg Firsocostat and 50 mg/kg Fenofibrate. All treatments were delivered QD by oral gavage for an additional four weeks. Mice weights and food intake were monitored during the treatment time course. Upon study termination at 12 weeks, liver and serum samples were collected. Serum liver damage biomarkers, ALT and AST, were measured by commercially available kits (abcam 105134 and abcam 105135, respectively). Hepatic and serum triglyceride levels were measured from a commercially available kit (abcam65336). Total RNA was extracted from liver tissues (Qiagen RNeasy kit 74106), and cDNA was prepared (BioRAD iScript™ Reverse Transcription) according to manufacturer's protocols. Quantitative PCR (qPCR) was performed with fast SYBR Green Mix (ThermoFisher A25742) on the QuantStudio6 System (Applied Biosciences). Protein expression levels of liver samples were measured by western blot using antibodies against VLDLR (AF2258, 1:2000), CPT1A (CST12252, 1:1000) and Histone H3 (CST9715, 1:1000). Membranes were developed using a HRP secondary antibody (1:5000) and visualized using an enhanced chemiluminescent HRP substrate (Thermo34577). Additional liver samples were fixed in 4% paraformaldehyde and embedded in paraffin blocks for sectioning and subsequently stained with hematoxylin and eosin (H&E).

[3] = tested on: 60% HFD diet-induced obesity with PPARA KO; experiment: TOFA in genetic PPARA knockout mice, 60% HFD diet-induced obesity (DIO) model; format: in vivo, PPARA knockout (PPARA KO) male mice
Description: as §1

[4] = tested on: CDAHFD induced late stage NAFLD/NASH in mice; experiment: In-depth investigation of rescue effect of TOFA in CDAHFD induced late stage NAFLD/NASH; format: in vivo, C57BL/6J male mice; settings: four weeks
Description: Six-week-old C57BL/6J male mice were fed with a L-amino acid diet with 60 kcal % fat with 0.1% methionine and no added choline (CDAHFD; Research Diets A06071302i) for eight weeks. Ten subjects were randomly assigned to either a vehicle (control) treatment or a 125 mg/kg. BID, of TOFA treatment delivered by oral gavage for an additional four weeks. Mice weights were monitored during the entire treatment time course. Upon study termination at 12 weeks, serum and liver samples were collected. Serum liver damage biomarkers, ALT and AST, were measured by commercially available kits (abcam 105134 and abcam 105135, respectively). Hepatic and serum triglyceride levels were measured from a commercially available kit (abcam65336). Total RNA was extracted from liver tissues (Qiagen RNeasy kit 74106), and cDNA was prepared (BioRAD iScript™ Reverse Transcription) according to manufacturer's protocols. Quantitative PCR (qPCR) was performed with fast SYBR Green Mix (ThermoFisher A25742) on the QuantStudio6 System (Applied Biosciences).

In the case of CCCCCCCCCCCCCCOc1ccc(C(=O)O)o1 [TOFA, 5-(Tetradecyloxy)-2-furoic acid], the body weight ([1]; 125 mg/kg BID oral gavage, two weeks) was “trending decrease in weight”, the “Cpt1a mRNA (RT-qPCR)” value ([1]; 125 mg/kg BID, two weeks) was “blunted” and the “hepatic steatosis (H&E)” value ([1]; 125 mg/kg BID, two weeks) was “minimal decreases in hepatic steatosis”. The “lipid content by Oil Red O” value ([1]; 125 mg/kg BID, two weeks) was “minimal changes in lipid content”, the “liver triglyceride (hepatic lipid levels)” value ([1]; 125 mg/kg BID, two weeks) was “no notable decrease” and the “serum ALT levels” value ([1]; 125 mg/kg BID, two weeks) was “marginal decreases”. The “serum AST levels” value ([1]; 125 mg/kg BID, two weeks) was “marginal decreases”, the “protein expression levels of CPT1A, VLDLR, and ACC1 (western blot)” value ([1]; relative to vehicle control) was “not observed” and the food intake [2] was “not attributed to changes in food intake”. For the same molecule, the liver damage ([2]; TOFA 250 mg/kg) was “largely decreased liver damage relative to vehicle control treatment at comparable, or stronger, degrees than Firsocostat, Fenofibrate, or the combination of the two agents”, the liver triglyceride levels ([2]; TOFA 250 mg/kg) was “strong decrease in liver triglyceride levels relative to Firsocostat treatments and vehicle control treatment” and the body weight ([2]; TOFA 250 mg/kg, Firsocostat 5 mg/kg, Fenofibrate 50 mg/kg) was “significant weight loss”. For the same molecule, the “PPARA downstream targets Vldlr and Cpt1a (RT-qPCR)” value ([2]; liver mRNA) was “unique increase”, the “genes involved in inflammation (Il1b, Il6) and collagen synthesis (Col1a1, Col3a) by RT-qPCR” value ([2]; liver mRNA) was “specific, comparable response” and the “protein expression levels of VLDLR and CPT1A (western blot)” value ([2]; liver samples) was “increased protein expression levels of VLDLR and CPT1A to higher degrees than the other treatment regimens”. For the same molecule, the “steatosis (H&E staining)” value ([2]; liver sections) was “decreased levels of steatosis”, the “body weight upon treatment start” value ([3]; 125 mg/kg BID oral gavage) was “decrease in weight” and the “Vldlr mRNA (RT-qPCR)” value ([3]; 125 mg/kg BID, two weeks) was “blunted response”. The “hepatic steatosis (H&E-stained liver sections)” value ([3]; 125 mg/kg BID, two weeks) was “minimal changes in hepatic steatosis”, the “serum triglyceride (serum lipid levels)” value ([3]; 125 mg/kg BID, two weeks) was “elevated serum lipid levels” and the adverse events ([3]; 125 mg/kg BID, two-week treatment period) was “Adverse events were observed”. For the same molecule, the “hepatic hydrogen peroxide levels” value ([4]; 125 mg/kg BID oral gavage) was “decrease”, the liver triglyceride levels ([4]; 125 mg/kg BID oral gavage) was “significant decrease” and the “serum ALT” value ([4]; 125 mg/kg BID oral gavage) was “trending decreases”. For the same molecule, the “serum AST” value ([4]; 125 mg/kg BID oral gavage) was “trending decreases”, the body weight ([4]; 125 mg/kg BID oral gavage, vs vehicle) was “significant decrease” and the “expression of genes involved in collagen biosynthesis by qPCR” value ([4]; liver mRNA, 125 mg/kg BID) was “decreased”. The “expression of inflammation genes (Il1b, Tnfa) by RT-qPCR” value ([4]; liver mRNA, 125 mg/kg BID) was “decrease in expression” and the “genes with PPAR regulatory elements (beta-oxidation, lipogenesis) by RT-qPCR” value ([4]; liver mRNA, 125 mg/kg BID) was “upregulated”.
